These results are taken from paper PMC10609143, “Inhibitory Mechanisms of Lekethromycin in Dog Liver Cytochrome P450 Enzymes Based on UPLC-MS/MS Cocktail Method” (Molecules, 2023).

For one data set, the target named is T1, CYP1A2 (Canis lupus familiaris, UniProt P56592).
T1 construct: from tissue; host or cells: dog liver microsomes (DLM)
T1 sequence (P56592 1-512): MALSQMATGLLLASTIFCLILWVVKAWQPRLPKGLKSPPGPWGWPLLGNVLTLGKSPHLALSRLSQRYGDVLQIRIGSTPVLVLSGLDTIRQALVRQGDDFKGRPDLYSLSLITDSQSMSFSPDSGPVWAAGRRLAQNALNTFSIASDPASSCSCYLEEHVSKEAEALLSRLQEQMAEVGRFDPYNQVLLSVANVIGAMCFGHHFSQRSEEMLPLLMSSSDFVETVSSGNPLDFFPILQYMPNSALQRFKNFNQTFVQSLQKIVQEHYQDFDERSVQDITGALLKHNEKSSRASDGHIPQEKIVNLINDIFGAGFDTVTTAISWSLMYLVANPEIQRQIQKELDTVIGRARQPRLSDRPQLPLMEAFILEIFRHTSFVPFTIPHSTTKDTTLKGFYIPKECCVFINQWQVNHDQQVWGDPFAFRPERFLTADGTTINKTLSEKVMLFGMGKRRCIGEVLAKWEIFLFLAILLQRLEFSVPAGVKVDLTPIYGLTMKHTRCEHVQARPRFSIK
As to the kind of experiment: CYP450 inhibition study of LKMS in dog liver microsomes (cocktail, UPLC-MS/MS), phenacetin O-deethylation. The settings on record: probe at Km, 15 min, 0.2 mg/mL protein, n = 3. In kind it is in vitro ADME. The protocol:
(§1) All experiments were performed in triplicate.
(§2) Inhibition assessment of CYP450 isoforms in DLM was performed with a fixed concentration of model probe substrates and a series of concentrations of LKMS ranging from 0 to 80 μM. The concentration of probe substrates was at a concentration of Km in this study. […] Mode inhibition was examined based on a primary Lineweaver–Burk plot and a secondary plot.
(§3) The IC50 values and enzyme kinetic parameters were determined by plotting relative activities over the logarithm of the concentration of LKMS using GraphPad (v.8.0.2, CA, USA). The mode of the inhibitor was analyzed using a Lineweaver–Burk plot and a secondary plot for inhibition constant (Ki and αKi) values. All experimental data are shown as mean ± standard deviation (SD).
(In general: Microsomes from liver hold many membrane-bound enzymes, among them those of drug oxidation.)

The next data set deals with CYP2A6. As to the kind of experiment: CYP450 inhibition study of LKMS in dog liver microsomes, coumarin hydroxylation. In kind it is in vitro ADME. As for the experimental part:
as §1, §2, §3

pIC50, pKi: −log10 of the molar value.

One may read the pIC50 as the negative decadic logarithm of the IC50, by convention in mol/L. Usually pKi stands for the Ki on a negative log10 scale, so that one unit is a factor of ten. In the case of Lekethromycin [LKMS], the negative logarithm of the IC50 (pIC50) on CYP1A2 is less than 3.70; in the data set with CYP2A6 (dog liver microsomes, coumarin hydroxylation, probe at Km, 15 min, 0.2 mg/mL protein, n = 3), 4.20. The Mode of inhibition entry in the data set with CYP2A6 (CYP2A6, Lineweaver-Burk plots) was “mixed-type inhibition”. In the data set with CYP2A6 (CYP2A6, dog liver microsomes, Lineweaver-Burk and secondary (slope) plot, n = 2, read-out: Ki (inhibition constant)), the pKi was 3.87. Also, the “αKi (alpha inhibition constant)” value in the data set on CYP2A6 (CYP2A6, dog liver microsomes, secondary (intercept) plot, n = 2) worked out at 227.6 µM.
